Test results published in ChEMBL document CHEMBL1201862, “PubChem BioAssay data set” (2004).
The source made the active and inactive calls.

What was measured:
Cytochrome P450 2D6 = Cytochrome P450 2D6 (Homo sapiens, UniProt P10635);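 further: CYP2D6 member of a cytochrome P450 panel assay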
Cytochrome P450 3A4 = Cytochrome P450 3A4 (Homo sapiens, UniProt P08684);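 further: CYP3A4 tested as one member of a cytochrome P450 panel screen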
Cytochrome P450 2C19 = Cytochrome P450 2C19 (Homo sapiens, UniProt P33261); test: Cytochrome panel assay with activity outcomes. Panel member name: p450-cyp2c19 Compounds with AC50 equal or less than 10 uM are considered active; assay type: functional
Sequence of Cytochrome P450 2C19 (P33261 whole entry): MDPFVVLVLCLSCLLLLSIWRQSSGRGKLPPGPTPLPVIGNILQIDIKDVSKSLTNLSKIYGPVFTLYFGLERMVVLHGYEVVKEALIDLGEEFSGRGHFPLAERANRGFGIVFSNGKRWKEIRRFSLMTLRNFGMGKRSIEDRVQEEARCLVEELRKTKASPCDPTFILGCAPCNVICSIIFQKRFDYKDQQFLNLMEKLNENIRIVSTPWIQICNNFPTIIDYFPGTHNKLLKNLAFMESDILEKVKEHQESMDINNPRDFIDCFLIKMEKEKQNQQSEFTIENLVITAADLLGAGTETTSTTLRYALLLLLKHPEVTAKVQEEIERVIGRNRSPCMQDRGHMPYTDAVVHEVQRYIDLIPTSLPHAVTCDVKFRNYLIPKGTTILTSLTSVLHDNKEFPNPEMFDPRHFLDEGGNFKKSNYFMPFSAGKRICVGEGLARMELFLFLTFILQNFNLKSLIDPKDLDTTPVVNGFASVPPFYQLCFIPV

Cytochrome P450 1A2 = molecular target: T1, Cytochrome P450 1A2 (Homo sapiens, UniProt P05177);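 further: PubChem cytochrome P450 panel assay, CYP1A2 panel member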
T1 sequence (P05177 whole entry): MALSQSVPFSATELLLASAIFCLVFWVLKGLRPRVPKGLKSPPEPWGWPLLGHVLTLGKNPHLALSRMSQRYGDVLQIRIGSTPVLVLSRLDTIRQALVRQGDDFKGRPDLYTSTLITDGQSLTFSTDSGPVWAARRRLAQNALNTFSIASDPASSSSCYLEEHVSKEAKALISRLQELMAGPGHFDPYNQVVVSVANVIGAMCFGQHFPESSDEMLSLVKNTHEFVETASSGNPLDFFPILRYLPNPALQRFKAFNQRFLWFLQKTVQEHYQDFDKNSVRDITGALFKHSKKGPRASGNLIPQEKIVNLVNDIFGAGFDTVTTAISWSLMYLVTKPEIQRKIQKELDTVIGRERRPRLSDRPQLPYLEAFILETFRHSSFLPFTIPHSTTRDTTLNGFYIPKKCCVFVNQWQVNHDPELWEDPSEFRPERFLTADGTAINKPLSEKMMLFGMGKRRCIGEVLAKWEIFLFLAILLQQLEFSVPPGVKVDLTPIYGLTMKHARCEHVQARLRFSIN

H9c2 = test: cells; assay type: functional, cell-based; settings: Rattus norvegicus, H9c2, Myocardium;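 further: confirmatory concentration-response retest of ultra-high-throughput screening hits for modulation of myocardial damage; cell death induced by hydrogen peroxide oxidative stress; compound pretreatment for 60 min then peroxide exposure for 2 h; potency is for protecting the cells against peroxide damage rather than for killing them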
[1] = molecular target: T2, Heat shock factor protein 1 (Mus musculus, UniProt P38532); test: HSF1 potentiators in luciferase reporter cells, confirmation, cell-based, NIH3T3, luminescence, dose retest (AID 435004); assay type: functional;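 further: stress induced by proteasome inhibitor MG132 added 30 min after compound; luciferase reporter driven by HSF1 response element in NIH3T3 cells; actives raise luminescence as potentiators of the MG132 stress response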
T2 sequence (P38532 whole entry): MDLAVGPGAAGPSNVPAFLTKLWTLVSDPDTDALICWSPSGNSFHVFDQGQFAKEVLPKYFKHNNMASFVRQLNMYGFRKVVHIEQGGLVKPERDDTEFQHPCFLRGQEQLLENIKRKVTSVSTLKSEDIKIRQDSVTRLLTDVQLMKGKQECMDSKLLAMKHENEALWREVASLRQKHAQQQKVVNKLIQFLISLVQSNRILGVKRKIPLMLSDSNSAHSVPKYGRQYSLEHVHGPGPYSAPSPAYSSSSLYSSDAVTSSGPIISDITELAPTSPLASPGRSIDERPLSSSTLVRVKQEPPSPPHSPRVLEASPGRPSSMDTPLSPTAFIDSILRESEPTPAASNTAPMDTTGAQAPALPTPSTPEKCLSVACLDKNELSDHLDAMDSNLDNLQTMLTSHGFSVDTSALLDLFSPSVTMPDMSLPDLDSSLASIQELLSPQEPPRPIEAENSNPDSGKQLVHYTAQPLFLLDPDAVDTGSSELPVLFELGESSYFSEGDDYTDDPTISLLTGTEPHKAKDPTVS

[2] = Luminescence Cell-Based Dose Retest to Confirm Inhibitors of Cancer Stem Cells. [Related pubchem assays (depositor defined):AID2717, AID2721]; assay type: functional; settings: Homo sapiens
H4 = test: Luminescence Cell-Based Dose Response HTS to Identify Activators of 5'UTR Stem-Loop Driven Prion Protein mRNA Translation in H4 Neuroglioblastoma Cells. [Related pubchem assays: 1829 (Project Summary), 1814 (Primary HTS)]; assay type: functional; settings: Homo sapiens
[3] = molecular target: T2, Heat shock factor protein 1; test: inhibition of MG132-induced HSE-luciferase signal, confirmation, cell-based, NIH3T3, luminescence, dose retest (AID 2382); assay type: functional;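 further: NIH3T3 fibroblasts with HSF1-driven luciferase reporter stressed by proteasome inhibitor MG132; luminescence from HSF1-driven luciferase expression after 8 hours of MG132 stress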
[4] = Luminescence Cell-Based Dose Response HTS to Identify Activators of Luciferase Translation or Activity in H4 […] Cells. [Related pubchem assays: 1829 (Project Summary), 1814 (Primary HTS)]; assay type: functional
[5] = Luminescence Cell-Based Dose Confirmation HTS to Identify Activators of 5'UTR Stem-Loop Driven Alpha-Synuclein mRNA Translation in H4 Neuroglioblastoma Cells. [Related pubchem assays: 1829 (Project Summary), 1814 (Primary HTS)]; assay type: functional
Protein skinhead-1 = molecular target: T3, Protein skinhead-1 (Caenorhabditis elegans, UniProt P34707); assay type: functional
T3 sequence (P34707 whole entry): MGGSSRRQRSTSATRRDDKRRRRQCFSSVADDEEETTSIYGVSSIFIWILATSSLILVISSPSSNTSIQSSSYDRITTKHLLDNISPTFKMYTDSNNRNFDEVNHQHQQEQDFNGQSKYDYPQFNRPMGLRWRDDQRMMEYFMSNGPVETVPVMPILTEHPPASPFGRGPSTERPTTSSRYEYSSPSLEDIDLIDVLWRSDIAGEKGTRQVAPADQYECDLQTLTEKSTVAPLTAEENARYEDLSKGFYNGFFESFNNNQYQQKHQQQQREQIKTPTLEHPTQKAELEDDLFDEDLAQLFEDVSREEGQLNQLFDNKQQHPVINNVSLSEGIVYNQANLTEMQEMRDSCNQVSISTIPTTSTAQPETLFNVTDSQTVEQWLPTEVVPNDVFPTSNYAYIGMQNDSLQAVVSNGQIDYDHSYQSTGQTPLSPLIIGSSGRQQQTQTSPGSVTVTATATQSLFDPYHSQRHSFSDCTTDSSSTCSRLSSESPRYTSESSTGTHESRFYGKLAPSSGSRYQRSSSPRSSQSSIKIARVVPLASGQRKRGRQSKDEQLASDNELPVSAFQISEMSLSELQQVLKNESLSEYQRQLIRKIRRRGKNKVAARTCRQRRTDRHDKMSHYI

INS1 = test: beta cell apoptosis inhibitors, cytokine rescue, dose response, luminescence, retest (AID 449756); assay type: functional, cell-based; settings: Rattus norvegicus;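 further: cell death triggered by IL-1 beta plus TNF-alpha plus IFN-gamma mixture; protective hits raise ATP signal compared with cytokine alone wells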
[6] = cytotoxicity toward NIH3T3 fibroblasts, dose response, counter-screen, cell-based, ATP luminescence, mouse fibroblasts (AID 2010); assay type: functional;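 further: cells exposed to compound for about 90 hours before reading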
[7] = inhibitors of intracellular T. cruzi replication, confirmation, NIH3T3 host cells, beta-gal luminescence (AID 2044); assay type: functional, cell-based;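 further: intracellular parasites grown in NIH/3T3 mouse fibroblasts as host cells; luminescent beta-galactosidase reporter signal from transgenic T. cruzi replicating inside host cells; inhibitors lower the luminescence signal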
[8] = tested on: Streptococcus sp. 'group A'; test: growth inhibition of control SK(-) GAS strain, dose response, counter-screen for streptokinase expression inhibitor project, luminescence, kanamycin, BacTiterGlo, confirmation (AID 1900); assay type: functional, organism-based
Streptokinase A = molecular target: T4, Streptokinase A (Streptococcus pyogenes serotype M1, UniProt P10520); test: S. pyogenes streptokinase expression inhibitors, potency, dose response, plasminogen activation absorbance, OD405 (AID 1914); assay type: functional, Streptococcus pyogenes M1 GAS;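 further: secreted streptokinase activity via plasminogen activation per viability signal from cell pellet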
T4 sequence (P10520 whole entry): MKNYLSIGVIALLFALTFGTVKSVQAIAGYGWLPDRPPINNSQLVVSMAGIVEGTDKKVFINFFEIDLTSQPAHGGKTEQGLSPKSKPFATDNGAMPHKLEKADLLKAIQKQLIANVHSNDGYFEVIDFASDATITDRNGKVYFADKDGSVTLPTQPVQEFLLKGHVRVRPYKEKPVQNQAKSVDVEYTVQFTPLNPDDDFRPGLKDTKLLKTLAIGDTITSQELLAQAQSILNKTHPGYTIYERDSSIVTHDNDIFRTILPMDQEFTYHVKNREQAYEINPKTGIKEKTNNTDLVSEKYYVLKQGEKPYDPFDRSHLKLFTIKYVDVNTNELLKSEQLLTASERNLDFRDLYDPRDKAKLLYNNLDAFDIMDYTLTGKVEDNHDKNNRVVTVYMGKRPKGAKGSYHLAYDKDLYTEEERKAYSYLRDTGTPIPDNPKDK

Streptococcus = test: Group A Streptococcus viability loss, dose response, counter-screen for streptokinase expression inhibitor project, luminescence, BacTiterGlo (AID 1915); assay type: functional, organism-based;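 further: potency for reduction of bacterial viability or growth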
Cytochrome P450 2C9 = Cytochrome P450 2C9 (Homo sapiens, UniProt P11712)
Sequence of Cytochrome P450 2C9 (P11712 whole entry): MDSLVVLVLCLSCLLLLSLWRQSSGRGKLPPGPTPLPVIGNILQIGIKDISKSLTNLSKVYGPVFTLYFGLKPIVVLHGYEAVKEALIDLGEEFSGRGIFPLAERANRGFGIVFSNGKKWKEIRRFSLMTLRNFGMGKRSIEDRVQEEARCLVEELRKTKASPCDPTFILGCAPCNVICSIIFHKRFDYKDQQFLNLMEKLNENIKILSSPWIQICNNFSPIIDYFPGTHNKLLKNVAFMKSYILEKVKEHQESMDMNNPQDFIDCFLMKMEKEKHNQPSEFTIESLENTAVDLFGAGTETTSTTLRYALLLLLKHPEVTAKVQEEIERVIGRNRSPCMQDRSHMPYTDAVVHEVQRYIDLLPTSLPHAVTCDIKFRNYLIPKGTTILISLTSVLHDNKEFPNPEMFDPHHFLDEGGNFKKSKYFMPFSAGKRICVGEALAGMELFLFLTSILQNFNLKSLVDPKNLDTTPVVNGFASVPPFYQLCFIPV

[9] = HEp-2 cell cytotoxicity, dose response, cytotoxicity control for RSV inhibitor project, HTS (AID 2410); assay type: functional; settings: human respiratory syncytial virus

Sequence of Cytochrome P450 2D6 (P10635 whole entry): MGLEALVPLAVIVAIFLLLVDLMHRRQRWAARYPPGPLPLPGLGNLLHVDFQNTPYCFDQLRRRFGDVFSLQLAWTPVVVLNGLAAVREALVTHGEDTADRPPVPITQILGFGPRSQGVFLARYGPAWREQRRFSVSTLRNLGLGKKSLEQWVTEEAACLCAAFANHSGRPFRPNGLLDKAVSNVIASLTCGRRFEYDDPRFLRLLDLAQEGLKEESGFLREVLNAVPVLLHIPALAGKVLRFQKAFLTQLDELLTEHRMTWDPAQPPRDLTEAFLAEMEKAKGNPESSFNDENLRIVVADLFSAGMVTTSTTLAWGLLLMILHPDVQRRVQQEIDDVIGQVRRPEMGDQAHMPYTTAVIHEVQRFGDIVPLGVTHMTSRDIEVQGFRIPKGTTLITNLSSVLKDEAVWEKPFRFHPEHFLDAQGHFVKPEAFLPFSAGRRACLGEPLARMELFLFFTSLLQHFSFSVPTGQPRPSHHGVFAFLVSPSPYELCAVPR
Sequence of Cytochrome P450 3A4 (P08684 whole entry): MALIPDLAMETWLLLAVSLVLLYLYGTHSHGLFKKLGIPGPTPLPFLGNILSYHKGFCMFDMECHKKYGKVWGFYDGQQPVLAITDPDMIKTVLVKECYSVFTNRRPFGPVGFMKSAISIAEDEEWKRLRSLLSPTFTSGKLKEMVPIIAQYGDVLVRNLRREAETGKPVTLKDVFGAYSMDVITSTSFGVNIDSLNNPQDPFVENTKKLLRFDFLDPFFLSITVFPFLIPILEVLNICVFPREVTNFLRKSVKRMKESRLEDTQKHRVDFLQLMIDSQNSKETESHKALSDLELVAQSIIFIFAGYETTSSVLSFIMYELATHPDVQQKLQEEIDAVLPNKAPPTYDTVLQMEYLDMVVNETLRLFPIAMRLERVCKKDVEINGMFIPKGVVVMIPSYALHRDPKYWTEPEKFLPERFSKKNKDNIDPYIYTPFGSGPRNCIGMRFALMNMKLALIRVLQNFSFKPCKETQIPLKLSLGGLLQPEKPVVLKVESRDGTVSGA

COc1cc(OC)c(OC)cc1/C=N\CC1(c2ccccc2)CCCC1
AC50 (Cytochrome P450 2D6): 28.2 µM (inconclusive) | AC50 (Cytochrome P450 3A4): 25.1 µM (inconclusive)

O=c1c2cnn(-c3ccccc3)c2nnn1/N=C/c1cccnc1
AC50 (Cytochrome P450 2C19): inconclusive | AC50 (Cytochrome P450 1A2): 3.16 µM (inconclusive) | AC50 (Cytochrome P450 2D6): 11.2 µM (inconclusive)

CCC(C)N1C(=O)S/C(=C/c2ccc3c(c2)n(C)c(=O)n3C)C1=O (centres undefined)
IC50 (H9c2): > 79 µM (inactive)

CCCC12CN3CC(C)(CN(C1)C3c1ccc3c(c1)OCO3)C2=O (centres undefined)
EC50 [1]: > 260 µM (inactive)

C=CCC[C@H](Cc1ccc(F)cc1)C(=O)OC[C@@H](Cc1c[nH]c2ccccc12)NC(=O)[C@@H](CC=C)CC(=O)NCCO
IC50 (H9c2): > 79 µM (inactive)

FC(F)(F)c1ccc(-c2noc(CN3CCCN(C4CCCCC4)CC3)n2)cc1
AC50 [2]: 1.79 µM (active)

O=c1c(O)c(-c2ccccc2)oc2cc(O)ccc12
IC50 (H9c2): > 79 µM (inactive)

O=S(=O)(Nc1ccc2c(c1)OCCO2)c1cccs1
EC50 (H4): 10.8 µM (active) | EC50 [3]: 2.91 µM (active) | EC50 [4]: 10.9 µM (active) | EC50 [5]: 14.8 µM (active)

COc1cc(C(=O)Nc2ccc(NC(=O)c3cccc(Cl)c3)nc2)cc(OC)c1OC
IC50 (H9c2): 8.67 µM (active)

C/C(=N\NC(=O)c1ccoc1C)c1cccc2ccccc12
EC50 [1]: > 260 µM (inactive)

Oc1c2c(nc3cc(-c4cccc(F)c4)nn13)CCC2
EC50 [1]: > 260 µM (inactive)

Cc1sc2nc(SCC(=O)N(C)C)nc(O)c2c1C
IC50 (H9c2): 22.3 µM (active)

COc1cccc(C(=O)N(Cc2ccccc2)Cc2cc3cc4c(cc3nc2O)OCCO4)c1
AC50 (Cytochrome P450 2D6): 0.224 µM (inconclusive)

O=C(Nc1nc(-c2cccc3ccccc23)cs1)c1ccc2c(c1)S(=O)(=O)c1ccccc1C2=O
AC50 [2]: 3.99 µM (active)

CN(C)c1ccc(-c2nc(NCCN3CCOCC3)c3ccccc3n2)cc1
AC50 (Cytochrome P450 2C19; read-out: AC50): 39.8 µM (inconclusive) | AC50 (Cytochrome P450 2D6): 25.1 µM (inconclusive) | AC50 (Cytochrome P450 3A4): 12.6 µM (inconclusive)

CC(C)CCN(C(=O)CNC(=O)c1ccco1)C(C(=O)NC1CCCCC1)c1ccco1 (centres undefined)
IC50 (H9c2): 17.4 µM (active)

Cc1c(Cl)cccc1NC(=O)CNC(=O)Cc1nnc(O)c2ccccc12
IC50 (H9c2): > 79 µM (inactive)

CC1(C)CC(=O)C(C2C3=C(CC(C)(C)CC3=O)OC3=C2C(=O)CC(C)(C)C3)=C(O)C1
EC50 [1]: > 260 µM (inactive)

NCCSc1nc2ccccc2s1
AC50 (Cytochrome P450 2D6): 3.98 µM (inconclusive)

COC(=O)[C@@]1(Cc2ccccc2)[C@H]2c3cc(C(=O)N4CCCC4)n(Cc4ccc(OC)c(OC)c4)c3C[C@H]2CN1C(=O)c1ccccc1
AC50 (Cytochrome P450 2D6): 31.6 µM (inconclusive)

COCCOC(=O)N/C=C\c1nc(O)c2ccccc2n1
IC50 (H9c2): > 79 µM (inactive)

CN(C)c1nc(N)nc(CSc2nnnn2-c2ccc(F)cc2)n1
EC50 [1]: > 260 µM (inactive)

CCOC(=O)C1=C(C)N=C(C)/C(=C(/O)OCC)C1C(=O)OCC(=O)NC1CCCCC1 (centres undefined)
IC50 (H9c2): 7.69 µM (active)

O=C(Nc1cccc(-c2csc(Nc3ccccc3)n2)c1)c1ccccc1
IC50 (Protein skinhead-1): > 100 µM (inactive) | AC50 [2]: 2.96 µM (active)

FC(F)Sc1ccc(NC2=NN=C(c3ccc4c(c3)OCCO4)CS2)cc1
AC50 (Cytochrome P450 1A2): 35.5 µM (inconclusive) | AC50 (INS1): 4.4 µM (active) | EC50 [6]: 6.72 µM (active) | AC50 (Cytochrome P450 2D6): 14.1 µM (inconclusive) | EC50 [7]: 1.99 µM (active)

COc1ccccc1CNCCCCCCNCCCCCCCCNCCCCCCNCc1ccccc1OC [METHOCTRAMINE]
AC50 (Cytochrome P450 2D6): 31.6 µM (inconclusive) | AC50 (Cytochrome P450 3A4): 10 µM (inconclusive)

CCOc1ccc(C(=O)NC(=S)N(Cc2ccccc2)Cc2ccccc2)cc1
AC50 (Cytochrome P450 2D6): 6.31 µM (inconclusive) | EC50 [8]: 2.46 µM (active) | EC50 (Streptokinase A): > 150 µM (not active) | EC50 (Streptococcus): 7.11 µM (active)

Cc1ccc(NN/C=C2\C(=O)NC(=O)N(c3ccccc3)C2=O)cc1
AC50 [2]: 2.35 µM (active)

CN(Cc1ccco1)c1ncnc2ccc(-c3cccc(C#N)c3)cc12
AC50 (Cytochrome P450 2D6): 25.1 µM (inconclusive) | AC50 (Cytochrome P450 2C9): 1.58 µM (inconclusive) | AC50 (Cytochrome P450 3A4): 31.6 µM (inconclusive)

Cc1ccc(-c2noc(CCC(=O)Nc3cc(C)ccn3)n2)cc1
EC50 [1]: > 260 µM (inactive)

O=C1CN(c2nc(-c3cccs3)nc3sc4c(c23)CCCC4)CCN1
EC50 (H4): 21 µM (active) | EC50 [4]: 15.2 µM (active) | EC50 [5]: 9.49 µM (active) | CC50 [9]: > 50 µM (active)

CCN(CC)S(=O)(=O)c1cc([N+](=O)[O-])ccc1NNC(=O)Nc1ccccc1OC
EC50 [1]: > 260 µM (inactive)
